Patent US20050282814A1, “Vasculostatic agents and methods of use thereof” (TargeGen, Inc., priority 2002, published 2005)

Experiments:
VEGF-induced edema = experiment: Miles assay, VEGF-induced edema; type: in vivo, Sprague-Dawley rats; conditions: general statement in description
Experimental: A rodent model of vascular edema, the Miles assay, was used to screen compounds for their ability to inhibit VEGF-induced edema.
Sprague-Dawley rats were first injected IV with vehicle alone or test agent, followed by IV injection of Evans blue dye, followed by intradermal injections of saline and VEGF (200 ng/injection site) along both shaved flanks. After 45 min, intradermal injection sites were photographed and then scored by a blinded observer for extravasation of Evans blue dye into the dermis (dermal bluing) according to a 4 point scoring system (3=maximal bluing, ≧75% of response in vehicle-treated animals; 2=medium bluing, >25% but <75% of vehicle-treated animals; 1=minimal bluing, ≦25% of vehicle-treated animals; 0=bluing equivalent to saline injection sites on same animal). Individual scores for 4 injection sites (from 2 separate animals) were summed and are shown as a scale of 0-12, with a lower score indicating the greater anti-edema activity; note that all vehicle-treated groups score a value of 12, based on the scoring system outlined above.

[1] = system: PAF-induced inflammatory edema; experiment: PAF-induced paw inflammatory edema; type: in vivo, Sprague Dawley rats; conditions: 5 mg/kg iv 30 min before PAF; 3 hours
Experimental: (§1) In order to determine the influence of compounds on the development of inflammation, Sprague Dawley rats were first injected intravenously with either vehicle or test compound at 5 mg/kg, and then 30 min later either PBS (as a control), dextran or platelet activating factor (PAF) was injected into the plantar surface of the hindlimbs, dextran and PAF being known to induce localized inflammatory responses marked by edema. Three hours later, paw dimensions were measured using a caliper and paw volumes calculated; data are shown as the increase in paw volume (mm^3) as compared to controls (paws injected with PBS).

[2] = system: dextran-induced inflammatory edema; experiment: Dextran-induced paw inflammatory edema; type: in vivo, Sprague Dawley rats; conditions: 5 mg/kg iv 30 min before dextran; 3 hours
Experimental: as §1

acute myocardial infarct = experiment: Rat acute myocardial infarct model (60 min LAD occlusion, reperfusion); type: in vivo, Sprague-Dawley rats; conditions: rat
Experimental: A rodent model of acute myocardial infarct, in which the proximal left anterior descending coronary artery (LAD) is occluded for 60 min followed by reperfusion, was used to determine whether test agents reduced infarct size at 24 hours.
Myocardial infarcts were created in Sprague-Dawley rats (200-300 g body weight) by a 60 min occlusion of the LAD followed by LAD reperfusion. At 90 min post-reperfusion, either vehicle alone or test agents were injected IV. At 24 hr post-treatment, the ischemic zone (area at-risk, AAR) was delineated by re-ligation of the LAD followed by IV injection of alkali blue dye, after which hearts were sectioned along the short axis and stained using triphenyltetrazolium chloride to delineate viable from infarcted myocardium. Photographic images were then analyzed using morphometric software to calculate infarct area as a percent of the at-risk area.
The following studies were performed as described above, except that the timing of 3-[2,4-diamino-6-(3-hydroxyphenyl)pteridin-7-yl] phenol dihydrochloride salt administration (at 0.1 mg/kg) was varied. In one group, 3-[2,4-diamino-6-(3-hydroxyphenyl)pteridin-7-yl] phenol dihydrochloride salt was administered at both 60 and 240 min post-occlusion.
In a porcine MI model (90 min of LAD occlusion followed by complete reperfusion), a single 0.3 mg/kg IV bolus delivered 30 min post-reperfusion reduced infarct size by […] vs. controls (40% vs. 56%, N=12-13, P=0.03).

[3] = system: VEGF-induced Akt kinase phosphorylation; experiment: VEGF-induced Akt phosphorylation in lung, Western blot; type: in vivo, Sprague Dawley rats
Experimental: The ability of compounds to impact PI3K activity in vivo was assessed by examining compound influence on vascular endothelial growth factor (VEGF)-induced Akt kinase phosphorylation (VEGF stimulation being an inducer of PI3K activity, and Akt kinase being a direct target of PI3K). Sprague Dawley rats were first injected intravenously (iv) with either vehicle or test compound at 5 mgfkg, and then 30, 60 or 120 min later injected iv with VEGF. Five minutes later, lungs were harvested and used to generate tissue lysates, which were then probed for phosphorylated Akt using Western blot technology; non-phosphorylated Akt was also probed in the same blots as a loading control. In other studies, test compounds was dosed at either 0.5 or 5 mg/kg, and VEGF delivered 60 min later, in order to assess the dose-response relationship of a compound's activities.

[4] = target: T1, human p120γ subunit of PI3K (Homo sapiens, UniProt P48736); experiment: PI3K p120γ enzymatic activity at two concentrations (Upstate Group); type: biochemical; conditions: 100% = no inhibition, 0% = complete inhibition
T1 construct: Upstate Group, Charlottesville, Va; (ran the assay under contract)
Experimental: The ability of compounds to inhibit the activity of PI3K kinase was determined using biochemical assays. In a first assay, compounds were tested at two concentrations (0.5 and 5 μM) for their ability to inhibit enzymatic activity of the human p120γ subunit of PI3K (the assay being performed under contract by Upstate Group, Charlottesville, Va.).

B 16 melanoma cells = experiment: B16 melanoma lung metastases, effect on IL-2 anti-tumor activity; type: in vivo, C57 mice; conditions: 100,000 U IL-2 and/or compound I.P. every 8 hours for 5 days; compound D 1 mg/kg range, compound E 0.1 mg/kg range
Experimental: Invention compound concentrations are listed in parenthesis in mg/kg while IL-2 concentration is given in parenthesis kilounits.
Syngeneic B 16 melanoma cells were injected I.V. in order to establish lung metastases in C57 mice. Beginning 10 days after cells were injected, 100,000 U of IL-2 and/or indicated invention compounds were given I.P. every 8 hours for 5 days. Animals were sacrificed at day 18, lungs were collected and scored using image analysis software. N=5/group, p<0.02. […] Invention compound concentrations are listed in parenthesis in mg/kg while IL-2 concentration is given in parenthesis kilounits.

CTLL2 = experiment: IL-2 dependent T-cell proliferation, XTT assay; type: cell-based, mouse; conditions: 96 hours, 50 pg human recombinant IL-2; compound E: in the therapeutic range (<1 μM)
Experimental: An IL-2 dependent […] T cell line, CTLL2, was used to evaluate IL-2 dependent proliferation over 96 hours in the presence of 50 pg of human recombinant IL-2 (R&D Systems) and the indicated compounds using the XTT assay.

ARDS-induced edema = experiment: Oleic acid induced ARDS lung edema, wet/dry weight; type: in vivo, NIH Swiss mice; conditions: 1.5 mg/kg oleic acid i.p., 4 hours; compound in the 0.5 mg/kg range
Experimental: FIG. 12 illustrates the effects of invention compounds for their capacity to inhibit edema associated with Acute Respiratory Distress Syndrome (ARDS). NIH Swiss mice were given an intraperitoneal injection of 1.5 mg/kg Oleic Acid of (in this example formulated in saline) and/or invention compounds.
NIH Swiss mice were given an intraperitoneal injection of 1.5 mg/kg Oleic Acid of (in this example formulated in saline) and/or invention compounds.

T1 sequence (P48736 whole entry): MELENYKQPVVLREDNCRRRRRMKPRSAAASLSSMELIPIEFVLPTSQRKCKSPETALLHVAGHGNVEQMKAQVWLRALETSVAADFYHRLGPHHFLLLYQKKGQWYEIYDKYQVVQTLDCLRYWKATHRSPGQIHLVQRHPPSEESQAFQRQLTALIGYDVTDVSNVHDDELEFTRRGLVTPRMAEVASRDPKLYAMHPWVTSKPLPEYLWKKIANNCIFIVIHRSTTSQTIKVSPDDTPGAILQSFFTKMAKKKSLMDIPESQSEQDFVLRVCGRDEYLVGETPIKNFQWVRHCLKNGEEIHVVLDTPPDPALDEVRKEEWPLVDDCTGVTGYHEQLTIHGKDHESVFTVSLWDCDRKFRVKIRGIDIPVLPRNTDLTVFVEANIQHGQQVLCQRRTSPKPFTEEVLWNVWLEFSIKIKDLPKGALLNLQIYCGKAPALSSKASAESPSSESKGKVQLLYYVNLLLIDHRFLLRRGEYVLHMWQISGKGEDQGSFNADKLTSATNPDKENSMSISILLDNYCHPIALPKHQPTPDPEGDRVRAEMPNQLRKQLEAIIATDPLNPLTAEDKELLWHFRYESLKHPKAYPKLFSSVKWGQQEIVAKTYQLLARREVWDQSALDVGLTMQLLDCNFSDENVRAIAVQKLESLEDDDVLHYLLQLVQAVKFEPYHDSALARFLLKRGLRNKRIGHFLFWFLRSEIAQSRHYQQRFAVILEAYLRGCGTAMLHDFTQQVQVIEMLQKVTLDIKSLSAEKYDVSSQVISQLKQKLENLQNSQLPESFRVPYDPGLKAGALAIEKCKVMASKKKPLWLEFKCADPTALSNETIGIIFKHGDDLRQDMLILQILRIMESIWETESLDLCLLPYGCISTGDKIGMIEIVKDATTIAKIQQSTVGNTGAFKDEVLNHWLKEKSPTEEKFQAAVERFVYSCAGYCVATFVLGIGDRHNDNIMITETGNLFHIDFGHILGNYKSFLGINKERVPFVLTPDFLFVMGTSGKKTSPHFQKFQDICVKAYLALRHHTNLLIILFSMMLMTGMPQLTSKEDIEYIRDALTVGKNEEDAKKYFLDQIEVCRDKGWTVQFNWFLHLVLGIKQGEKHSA

SMILES | inhibition of edema formation in VEGF-treated animals (VEGF-induced edema) | PAF-induced increase in paw volume [1] | dextran-induced increase in paw volume [2] | infarct area as percentage of ischemic territory (mean±SD) (acute myocardial infarct; 0.3 mg/kg IV bolus 60 min into reperfusion, 24 hr, vehicle 62%±7) [%] | infarct reduction with varied dosing time (acute myocardial infarct; dosing immediately at reperfusion or out to 3 hr later) | Inhibition of VEGF-induced Akt phosphorylation, time course ([3]; 5 mg/kg iv, VEGF 30, 60 or 120 min later, lung lysates) | Inhibition of VEGF-induced Akt phosphorylation, dose-response ([3]; 0.5 or 5 mg/kg iv, VEGF 60 min later, lung lysates) | blockade of Akt phosphorylation following VEGF delivery ([3]; general statement in description) | remaining activity at 0.5 µM ([4]; 0.5 μM, read-out: Percent Control Value at 0.5 μM) [%] | remaining activity at 5 µM ([4]; 5 μM, read-out: Percent Control Value at 5 μM) [%] | impact on the anti-tumor activity of IL-2 (B 16 melanoma cells) | impact on IL-2 induced T-cell proliferation (CTLL2) | reduction of ARDS-induced edema (ARDS-induced edema) [%]
Nc1nc(N)c2nc(-c3cccc(O)c3)c(-c3cccc(O)c3)nc2n1 [6,7-bis-(3-hydroxyphenyl)-pteridine-2,4-diamine] | inhibit edema formation in VEGF-treated animals | blocked these responses | blocked these responses | 35 | Equivalent infarct reductions | Inhibition of VEGF-induced Akt phosphorylation was seen at all time-points examined | at all 6,7-bis-(3-hydroxyphenyl)-pteridine-2,4-diamine doses examined | blockade of Akt phosphorylation | 47 | 5 | – | – | –
O=C(O)c1ccccc1C(=O)Nc1ccccc1-c1cc2ccccc2[nH]1 [compound D] | – | – | – | – | – | – | – | – | – | – | no significant impact | no significant impact | –
Nc1nc(N)c2nc(-c3cccc(O)c3)c(-c3cccc(O)c3)nc2n1.O=S(=O)(O)O [compound E] | – | – | – | – | – | – | – | – | – | – | no significant impact | no significant impact | > 50
